Data taken from US20100150911A1, “METHODS AND SYSTEMS OF TREATING AGE-RELATED MACULAR-DEGENERATION” (OPTO GLOBAL HOLDINGS PTY LTD, priority 2007, published 2010).

System: subfoveal choroidal neovascularization (CNV) secondary to age-related macular degeneration (AMD)
Test: Indocyanine green mediated photothrombosis (i-MP) with and without intravitreal Bevacizumab in patients (Example 4)
Format: in vivo, human

In the case of “i-MP+intravitreal Bevacizumab: i-MP combined with an intravitreal injection of Bevacizumab (Avastin), an anti-VEGF compound”, the “need to perform a second treatment session” value (10 months of follow-up, 25 eyes) is reported as “not required”, the “eyes with improvement of the visual acuity in 2 lines (Group B: almost 2 lines) with staining in the fluorescein angiography” value (10 months of follow-up, 25 eyes per group) is reported as 68% and the “response of the choroidal neovascular membranes (fluorescein angiography and OCT)” value (10 months of follow-up, compared with i-MP alone) is reported as “responded better”. The “visual acuity obtained by a single patient” value (left eye, occult CNV, visual acuity 0.1 before treatment, 10 months after treatment) was 0.3.
